In the experiment the test system is cell lines with elevated PHGDH expression (BT-20, MDA-MB-468, HCC70, Hs578T and MT3). In words: Cell proliferation assay after lentiviral shRNA infection. The format is cell-based, human. As to conditions: media supplemented during PHGDH knockdown. How it is done:
For PHGDH or PSPH knockdown experiments, 10,000-20,000 MDA-MB-468, BT-20, HCC70, MCF-7, or MDA-MB-23 I cells were infected with shRNA-expressing lentiviruses of known titers at a multiplicity of infection of 2.5 to 5. Cells were cultured in 12-well plates and infected via a 30-minute spin at 2,250 RPM in a Beckman Coulter Allegra X-12R centrifuge with an SX4750 rotor and uPlate Carrier attachment followed by an overnight incubation in media containing polybrene. Eight days after infection the number of cells was determined using a Coulter Counter (Beckman) and used to calculate relative cell proliferation. Where indicated, standard RPMI media was supplemented with serine to concentrations 5-fold that of the serine already in the media. Where indicated, supplementation occurred at one and four days after lentiviral infection. For serine depletion experiments, cells were plated out as described above and the following day the standard culture medium was replaced with medium lacking serine or reconstituted with 1× serine. Dialyzed serum (3 kDa MWCO) was utilized in serine depletion experiments except in the case of MCF-10A cells, where standard 5% serum was utilized.

Molecules are shown by their SMILES.

As for `COC(=O)C(N)CO` (centres unmarked) [methyl-serine-ester], the “effect of media supplementation on the PHGDH knockdown proliferation phenotype” value was “did not blunt the effects of the PHGDH knockdown”.

For `N[C@@H](CO)C(=O)O` [serine], the “effect of media supplementation on the PHGDH knockdown proliferation phenotype” value is “did not blunt the effects of the PHGDH knockdown”.
